Key:
[1] = In-vivo pharmacokinetic study in mice (bioavailability testing); settings: mouse, plasma; oral (PO) and intravenous (IV) routes, female Balb/c nude mice
Description: Test compounds were administered to mice via oral (PO) and intravenous (IV) routes. The test compounds were dissolved at room temperature. The mice used in the study were Balb/c nude mice, all female, aged 6-8 weeks, with a body weight of 20-30 grams. Before administration, the mice had free access to food and water. Blood samples (approximately 0.03 mL per sample) were collected from the vein at appropriate time points. The samples were placed in tubes containing an anticoagulant and stored on ice until centrifugation. Blood samples were collected at 0.083, 0.25, 0.5, 1, 2, 4, 8, and 24 hours after intravenous administration, and at 0.25, 0.5, 1, 2, 4, 8, and 24 hours after oral administration. The blood samples were centrifuged at approximately 4000 rpm at 2-8 °C for 5 minutes. Plasma samples were then collected and stored frozen at approximately -80 °C until analysis. The LC-MS/MS system was used for bioanalytical work. Table 4. Bioavailability Testing

[2] = Toxicity assay in mice, repeated dosing at 50 mg/kg, body weight; assay type: in vivo; settings: 50 mg/kg PO once every 3 days; for overall condition / clinical symptoms: 21 days; for overall condition / clinical symptoms / effect on mouse body weight: female mice; for effect on mouse body weight: after 21 days of repeated administration
Description: Test compounds were administered to mice via the oral (PO) route. The test compounds were dissolved at room temperature. The mice used in the study were all female, and aged 6-8 weeks. Before administration, the mice had free access to food and water. Vehicle control: 50 mM NaH2PO4, pH 4.0, administered once every 3 days. CX-5461 and Compound H-31 were administered once every 3 days at a dose of 50 mg/kg. If the body weight of the mice decreased by more than 15%, administration was suspended until the body weight recovered, after which administration was resumed.

UWB1.289 Cells = assay: Cell activity assay (CellTiterGlo), BRCA1 gene-deficient ovarian cancer cells UWB1.289; assay type: cell-based; settings: UWB1289, 144 h, BRCA1 gene-deficient ovarian cancer cells UWB1.289, 6 days incubation
Description: (§1) • (1) Compound Treatment • a) Preparation of Stock Solutions of Compounds Test compounds were dissolved in DMSO at a concentration of 10 mM or 5 mM, and Olaparib was dissolved in DMSO at a concentration of 10 mM. • b) Compound Storage All compounds dissolved in DMSO were stored in a desiccator at room temperature for short-term storage and transferred to a -20°C refrigerator for long-term storage. • c) Preparation of Working Concentrations of Compounds
(§2) Test compounds were serially diluted in DMSO at a 3-fold gradient to prepare 10 concentration gradients, starting from 10 µM.
(§3) Olaparib was serially diluted in DMSO at a 3-fold gradient to prepare 10 concentration gradients, starting from 10 µM.
(§4) The 384-well plate loaded with the compounds was centrifuged at 1000 rpm for 1 minute.
(§5) • a) Cells were added to the culture medium and incubated in a cell culture incubator at 37°C with 5% CO2. • b) 40 µL of BRCA1- or BRCA2-deficient cells were added to a 384-well plate and incubated overnight at 37°C with 5% CO2. • c) The test compounds were prepared at different concentration gradients on the master plate, and 80 nL of the test compounds and Olaparib were taken from the master plate and added to the 384-well plate containing cells, and incubated at 37°C with 5% CO2 for 6 days. • d) CellTiterGlo (30 µL per well) was added to the 384-well plate, and after incubation at room temperature in the dark for 30 minutes, measurement was performed using an Envision plate reader.
(§6) • a) GraphPad Prism software was used to calculate the ICso and plot the activity curves as a function of concentration. • b) The inhibition of cell activity by the compounds was calculated using the following formula: % Inhibition = [1−(Cmpd−Blank)/(DMSO−Blank)]*100 [formula]

DLD1 BRCA2^-/- = assay: Cell activity assay (CellTiterGlo), BRCA2 gene knockout DLD1 cancer cells; assay type: cell-based; settings: Homo sapiens, DLD-1, 144 h, read-out: IC50(nM) DLD1 BRCA2^-/-
Description: as §1, §2, §3, §4, §5, §6

hERG = hERG (Homo sapiens, UniProt Q12809); assay: hERG cardiotoxicity assay (patch clamp, hERG stably expressed HEK 293 cell line); assay type: cell-based; settings: hERG current, HEK 293 cells, 5 doses
Description: Assay Method: 1) The hERG stably expressed HEK 293 cell line (Cat# K1236) was purchased from Invitrogen. Cells were cultured in a medium consisting of 85% DMEM, 10% FBS, 0.1 mM NEAA, 25 mM HEPES, 100 U/mL penicillin-streptomycin, 5 µg/mL Blasticidin, and 400 µg/mL Geneticin. Cells were passaged approximately three times a week using TrypLE™ Express and maintained at ~40% to ~80% confluency. Before assay, cells were placed on coverslips with 5×10^5 cells per 6-cm cell culture dish and induced with 1 µg/mL doxycycline for 48 hours. 2) The coverslip was removed from the cell culture dish and placed on the microscope stage. A suitable cell was located using a 10× objective. The tip of the electrode was located under the microscope using the 10× objective, and the focus was adjusted to the plane of the cell. Once the tip was in focus, the coarse control of the manipulator was used to advance the electrode downward toward the cell while moving the objective to keep the tip in focus. When directly above the cell, the objective was switched to 40× objective, and the fine control of the manipulator was used to approach the cell surface in small steps. 3) A blank control was first performed to establish a baseline. […] In the presence of the test compounds, the hERG current was recorded for approximately 5 minutes to reach a steady state, followed by capturing 5 scans. For dose-response testing, 5 doses of the test compounds were cumulatively applied to the cells from low to high concentrations. The positive control, dofetilide at a concentration of 150 nM, was applied to each cell, and the hERG current was measured in the test compounds at the highest concentration as a negative control to normalize the percentage of inhibition. To ensure good performance of the cultured cells and operations, cells from the same batch were also tested with 5 doses of dofetilide. Table 5. hERG Toxicity Assay Results

[3] = Toxicity assay in mice, repeated dosing at 55 mg/kg, body weight; assay type: in vivo; settings: 55 mg/kg PO once every 3 days, 4 repeated administrations, female Balb/c mice
Description: Test compounds were administered to mice via the oral (PO) route. The test compounds were dissolved at room temperature. The mice (Balb/c) used in the study were all female, and aged 6-8 weeks. Before administration, the mice had free access to food and water.
Vehicle control: 50 mM NaH2PO4, pH 4.0. CX-5461 and the H series compounds were administered once every 3 days at a dose of 55 mg/kg, with four doses administered in total.

MDA-MB-436 cancer cells = assay: Inhibition of human-derived cancer in mouse model (MDA-MB-436 subcutaneous tumors); assay type: in vivo, NOD SCID mice; settings: MDA-MB-436 model, oral
Description: The anti-cancer efficacy of the compounds of the present application was evaluated in NOD SCID mice. Female mice aged 6-8 weeks were subcutaneously inoculated with MDA-MB-436 cancer cells to form tumors. When the tumors reached a size of 100-150 mm^3, the mice were randomly divided into groups, with 6 mice in each group. The administration route was oral administration. Olaparib was administered once a day at a dose of 100 mg/kg for a total of 28 days. The vehicle control group and Compound H-31 were administered once every 3 days at a dose of 25 mg/kg.

[4] = test system: human herpesvirus HCMV-AD169; assay: Antiviral cell-protective activity, GFP-labeled HCMV-AD169 in MRC5 cells; assay type: cell-based; settings: for EC50: Human betaherpesvirus 5, 168 h, HCMV-AD169 GFP fluorescence, 7 days, read-out: Virus inhibition EC50; for SI (CC50/EC50): therapeutic index, HCMV-AD169
Description: MRC5 cells were seeded in microplates at a specific density and cultured overnight in an incubator at 37 °C with 5% CO2. Serially diluted compounds and GFP-labeled human herpesvirus HCMV-AD169 were added to the microplates. A cell control group (cells without compound treatment or viral infection) and a virus control group (cells infected with the virus but without compound treatment) were set up. The test compounds and control compounds were tested at 8 concentrations, with 3-fold serial dilutions and triplicate wells for each concentration. Meanwhile, the cytotoxicity of the test compounds and control compounds on cells was determined. The cells were cultured in an incubator at 37 °C with 5% CO2 for 7 days. Acumen Cellista was used to detect the GFP fluorescence intensity inside the cells in each well. Cell viability detection reagents CCK-8 or Cell Titer Glo were used to measure cell viability, and the original data were used for calculating the cytotoxicity of the test compounds. GraphPad Prism software was applied to analyze the dose-response curves of the test compounds, calculate the virus inhibition EC50 and cytotoxicity CC50 values, and further calculate the therapeutic index (SI), using the formula SI = CC50/EC50, which was used to evaluate the therapeutic potential of the drug; a higher SI value indicates stronger efficacy of the drug against viruses.

Chain of hERG (Q12809 whole entry): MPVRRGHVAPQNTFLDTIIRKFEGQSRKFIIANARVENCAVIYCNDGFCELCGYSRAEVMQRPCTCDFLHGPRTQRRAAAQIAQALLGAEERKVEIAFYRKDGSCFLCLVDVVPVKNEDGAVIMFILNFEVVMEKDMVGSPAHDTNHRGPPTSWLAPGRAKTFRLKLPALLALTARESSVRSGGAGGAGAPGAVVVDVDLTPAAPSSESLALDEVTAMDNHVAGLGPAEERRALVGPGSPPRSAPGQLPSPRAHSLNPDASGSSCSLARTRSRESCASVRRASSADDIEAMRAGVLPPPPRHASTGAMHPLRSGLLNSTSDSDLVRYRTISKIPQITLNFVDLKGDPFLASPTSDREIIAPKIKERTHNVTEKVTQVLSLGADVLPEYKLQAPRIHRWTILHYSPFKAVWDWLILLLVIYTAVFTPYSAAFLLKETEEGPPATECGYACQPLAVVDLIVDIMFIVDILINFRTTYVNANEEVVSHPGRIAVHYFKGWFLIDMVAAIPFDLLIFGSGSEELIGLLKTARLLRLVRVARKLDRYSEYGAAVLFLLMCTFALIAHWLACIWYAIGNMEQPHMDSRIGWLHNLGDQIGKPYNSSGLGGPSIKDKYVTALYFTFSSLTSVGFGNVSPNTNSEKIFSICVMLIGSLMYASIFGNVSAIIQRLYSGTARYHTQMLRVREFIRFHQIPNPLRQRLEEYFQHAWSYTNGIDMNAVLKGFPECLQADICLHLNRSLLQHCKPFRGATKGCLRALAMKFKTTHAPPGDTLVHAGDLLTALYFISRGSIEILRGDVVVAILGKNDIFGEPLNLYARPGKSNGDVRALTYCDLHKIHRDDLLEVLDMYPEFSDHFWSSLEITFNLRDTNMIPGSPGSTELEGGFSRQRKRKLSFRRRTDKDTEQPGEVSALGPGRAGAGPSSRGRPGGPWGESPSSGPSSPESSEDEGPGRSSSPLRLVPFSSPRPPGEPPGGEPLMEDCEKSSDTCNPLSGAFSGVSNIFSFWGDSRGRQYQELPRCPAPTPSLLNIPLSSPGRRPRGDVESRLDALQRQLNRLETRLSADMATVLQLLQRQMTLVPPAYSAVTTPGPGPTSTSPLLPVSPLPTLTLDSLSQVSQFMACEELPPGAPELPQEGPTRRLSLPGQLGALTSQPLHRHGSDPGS

Structure (SMILES) | bioavailability [1] [%] | IC50 (DLD1 BRCA2^-/-) [nM] | other results
Cc1cnc(CNC(=O)c2c(=O)c3ccc(N4CCCN(C)CC4)nc3n3c2sc2ccccc23)cn1 [CX-5461] | 33.8 | 43.9 | overall condition / clinical symptoms [2]: poor overall condition, sluggish movement, and pallor in the tails and toes due to blood loss; effect on mouse body weight [2]: significantly reduced the body weight of the mice; average body weight loss ([2]; administration halted for the entire group): exceeded 10%; IC50 (UWB1.289 Cells): 91.6 nM; IC50 (hERG): 5100 nM
CN1CCCN(c2ccc3c(=O)c(C(=O)NCc4ncc(F)cn4)c4sc5ccccc5n4c3n2)CC1 [Compound H-1] | 60.7 | 37.7 | 
CN1CCCN(c2ccc3c(=O)c(C(=O)NCc4ncc(Cl)cn4)c4sc5ccccc5n4c3n2)CC1 [Compound H-2] | 47.2 | 33.8 | 
CN1CCCN(c2ccc3c(=O)c(C(=O)NCc4ncc(C(F)(F)F)cn4)c4sc5ccccc5n4c3n2)CC1 [Compound H-4] |  | 36 | deaths [3]: no deaths observed
[2H]C1([2H])CN(c2ccc3c(=O)c(C(=O)NCc4ncc(F)cn4)c4sc5ccccc5n4c3n2)C([2H])([2H])C([2H])([2H])N(C)C1([2H])[2H] [Compound H-6] |  | 23.8 | 
[2H]C([2H])([2H])N1C([2H])([2H])C([2H])([2H])CN(c2ccc3c(=O)c(C(=O)NCc4ncccn4)c4sc5ccccc5n4c3n2)C([2H])([2H])C1([2H])[2H] [Compound H-7] |  | 16.2 | 
[2H]C([2H])([2H])N1C([2H])([2H])C([2H])([2H])CN(c2ccc3c(=O)c(C(=O)NCc4ncc(F)cn4)c4sc5ccccc5n4c3n2)C([2H])([2H])C1([2H])[2H] [Compound H-8] |  | 15.9 | 
CN1CCCN(c2ccc3c(=O)c(C(=O)NCc4ncc(C#N)cn4)c4sc5ccccc5n4c3n2)CC1 [Compound H-11] |  | 16.2 | 
CN1CCCN(c2ccc3c(=O)c(C(=O)NCc4nccc(C#N)n4)c4sc5ccccc5n4c3n2)CC1 [Compound H-12] | 49.1 | 13.7 | 
CNC(=O)c1cnc(CNC(=O)c2c(=O)c3ccc(N4CCCN(C)CC4)nc3n3c2sc2ccccc23)nc1 [Compound H-13] |  |  | IC50 (hERG): > 30000 nM
CN1CCCN(c2ccc3c(=O)c(C(=O)NCc4ncc(C(=O)N(C)C)cn4)c4sc5ccccc5n4c3n2)CC1 [Compound H-15] |  |  | IC50 (hERG): > 30000 nM
COc1cnc(CNC(=O)c2c(=O)c3ccc(N4CCCN(C)CC4)nc3n3c2sc2ccccc23)nc1 [Compound H-16] |  | 27.5 | 
COc1ccnc(CNC(=O)c2c(=O)c3ccc(N4CCCN(C)CC4)nc3n3c2sc2ccccc23)n1 [Compound H-17] | 74.6 |  | deaths [3]: no deaths observed
CSc1cnc(CNC(=O)c2c(=O)c3ccc(N4CCCN(C)CC4)nc3n3c2sc2ccccc23)nc1 [Compound H-18] |  |  | IC50 (hERG): 10700 nM
CNc1cnc(CNC(=O)c2c(=O)c3ccc(N4CCCN(C)CC4)nc3n3c2sc2ccccc23)nc1 [Compound H-19] |  | 30.3 | 
CCc1cnc(CNC(=O)c2c(=O)c3ccc(N4CCCN(C)CC4)nc3n3c2sc2ccccc23)nc1 [Compound H-21] | 66.8 |  | 
CCc1ccnc(CNC(=O)c2c(=O)c3ccc(N4CCCN(C)CC4)nc3n3c2sc2ccccc23)n1 [Compound H-22] | 40.6 | 36.7 | 
CN1CCCN(c2ccc3c(=O)c(C(=O)NCc4ncc(C5CC5)cn4)c4sc5ccccc5n4c3n2)CC1 [Compound H-27] | 59.2 |  | 
CN1CCCN(c2ccc3c(=O)c(C(=O)NCc4nccc(C5CC5)n4)c4sc5ccccc5n4c3n2)CC1 [Compound H-28] | 41.6 |  | 
[2H]C([2H])([2H])N1CCCN(c2ccc3c(=O)c(C(=O)NCc4ncccn4)c4sc5ccccc5n4c3n2)CC1 [Compound H-31] | 43.1 | 12.8 | cancer inhibition rate (MDA-MB-436 cancer cells; 25 mg/kg once every 3 days): 82.2%; EC50 [4]: 30 nM; SI (CC50/EC50) [4]: >101.7; overall condition / clinical symptoms [2]: no abnormal clinical symptoms were observed; effect on mouse body weight [2]: weight trends similar to the control group; IC50 (UWB1.289 Cells): 28.8 nM
Nc1nc(O)c2ncn(COC(CO)CO)c2n1 [Ganciclovir, reference compound] |  |  | EC50 [4]: 1600 nM; SI (CC50/EC50) [4]: >60.7
O=C(c1cc(Cc2n[nH]c(=O)c3ccccc23)ccc1F)N1CCN(C(=O)C2CC2)CC1 [Olaparib, reference compound] |  | 490 | cancer inhibition rate (MDA-MB-436 cancer cells; 100 mg/kg once a day for 28 days): 63.4%; IC50 (UWB1.289 Cells): 716 nM

From patent EP4703364A1, “QUINOLONE ANALOG AND USE THEREOF” (Horizon Omics Biotech Limited, priority 2023, dated 2024)
